# From the supplement of paper PMC10307832
# Legend:
# Assay in all cases: relative viability (nuclei count vs DMSO), 5 days (fraction); higher = more cells survive
# A-427 = tested on: A-427
# Summary of the method: (§1)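 A single step with final 0.05% Triton X-100, 1% formaldehyde and 1 ug/ml Hoechst fixed the cells and stained nuclei 5 days after treatment. Lung cancer cell lines in 1536-well plates had been treated by pin tool the day after seeding with one drug alone or a fixed anchor-drug dose plus five library-drug doses (not always all listed) in √10 steps, and nuclei were counted on 4× images. Relative viability is the ratio of nuclei in treated wells to nuclei in vehicle wells, taken as the median of duplicate plates.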
# ABC-1 = tested on: ABC-1
# Summary of the method: as §1
# COR-L23 = tested on: COR-L23
# Summary of the method: as §1
# EMC-BAC-2 = tested on: EMC-BAC-2
# Summary of the method: as §1
# HARA = tested on: HARA
# Summary of the method: as §1
# HOP-62 = tested on: HOP-62
# Summary of the method: as §1
# LK-2 = tested on: LK-2
# Summary of the method: as §1
# LXF-289 = tested on: LXF-289
# Summary of the method: as §1
# NCI-H1792 = tested on: NCI-H1792
# Summary of the method: as §1
# NCI-H1793 = tested on: NCI-H1793
# Summary of the method: as §1
# NCI-H1944 = tested on: NCI-H1944
# Summary of the method: as §1
# NCI-H1993 = tested on: NCI-H1993
# Summary of the method: as §1
# NCI-H2009 = tested on: NCI-H2009
# Summary of the method: as §1
# NCI-H2170 = tested on: NCI-H2170
# Summary of the method: as §1
# NCI-H2228 = tested on: NCI-H2228
# Summary of the method: as §1
# NCI-H3122 = tested on: NCI-H3122
# Summary of the method: as §1
# NCI-H596 = tested on: NCI-H596
# Summary of the method: as §1
# NCI-H727 = tested on: NCI-H727
# Summary of the method: as §1
# PC-3 [JPC-3] = tested on: PC-3 [JPC-3]
# Summary of the method: as §1
# SK-LU-1 = tested on: SK-LU-1
# Summary of the method: as §1
# SK-MES-1 = tested on: SK-MES-1
# Summary of the method: as §1
# SW 1573 = tested on: SW 1573
# Summary of the method: as §1
compound,measurement,setting,value
C=C1C(=O)O[C@@H](CCCCCCCC)[C@@H]1C(=O)O [C-75] + CS(=O)(=O)N1CCN(Cc2cc3nc(-c4cccc5[nH]ncc45)nc(N4CCOCC4)c3s2)CC1 [Pictilisib] (partner 1 µM),relative viability,A-427; first compound 0.08 µM,0.786
same,relative viability,A-427; first compound 0.253 µM,0.75
same,relative viability,A-427; first compound 0.8 µM,0.626
same,relative viability,A-427; first compound 2.53 µM,0.62
same,relative viability,A-427; first compound 8 µM,0.718
same,relative viability,ABC-1; first compound 0.08 µM,0.733
same,relative viability,ABC-1; first compound 0.253 µM,0.87
same,relative viability,ABC-1; first compound 0.8 µM,0.659
same,relative viability,ABC-1; first compound 2.53 µM,0.646
same,relative viability,ABC-1; first compound 8 µM,0.469
same,relative viability,COR-L23; first compound 0.08 µM,0.663
same,relative viability,COR-L23; first compound 0.253 µM,0.865
same,relative viability,COR-L23; first compound 0.8 µM,0.78
same,relative viability,COR-L23; first compound 2.53 µM,0.609
same,relative viability,COR-L23; first compound 8 µM,0.693
same,relative viability,EMC-BAC-2; first compound 0.08 µM,0.51
same,relative viability,EMC-BAC-2; first compound 0.253 µM,0.491
same,relative viability,EMC-BAC-2; first compound 0.8 µM,0.51
same,relative viability,EMC-BAC-2; first compound 2.53 µM,0.521
same,relative viability,EMC-BAC-2; first compound 8 µM,0.587
same,relative viability,HARA; first compound 0.08 µM,0.413
same,relative viability,HARA; first compound 0.253 µM,0.432
same,relative viability,HARA; first compound 0.8 µM,0.375
same,relative viability,HARA; first compound 8 µM,0.585
same,relative viability,HOP-62; first compound 0.08 µM,0.732
same,relative viability,HOP-62; first compound 0.253 µM,0.927
same,relative viability,HOP-62; first compound 0.8 µM,0.788
same,relative viability,HOP-62; first compound 2.53 µM,0.73
same,relative viability,HOP-62; first compound 8 µM,0.545
same,relative viability,LK-2; first compound 0.08 µM,0.444
same,relative viability,LK-2; first compound 0.253 µM,0.662
same,relative viability,LK-2; first compound 0.8 µM,0.555
same,relative viability,LK-2; first compound 2.53 µM,0.461
same,relative viability,LK-2; first compound 8 µM,0.396
same,relative viability,LXF-289; first compound 0.08 µM,0.77
same,relative viability,LXF-289; first compound 0.253 µM,0.836
same,relative viability,LXF-289; first compound 0.8 µM,0.76
same,relative viability,LXF-289; first compound 2.53 µM,0.771
same,relative viability,LXF-289; first compound 8 µM,0.73
same,relative viability,NCI-H1792; first compound 0.08 µM,0.312
same,relative viability,NCI-H1792; first compound 0.253 µM,0.268
same,relative viability,NCI-H1792; first compound 0.8 µM,0.293
same,relative viability,NCI-H1792; first compound 2.53 µM,0.261
same,relative viability,NCI-H1792; first compound 8 µM,0.343
same,relative viability,NCI-H1793; first compound 0.08 µM,0.339
same,relative viability,NCI-H1793; first compound 0.253 µM,0.359
same,relative viability,NCI-H1793; first compound 0.8 µM,0.324
same,relative viability,NCI-H1793; first compound 2.53 µM,0.215
same,relative viability,NCI-H1793; first compound 8 µM,0.372
same,relative viability,NCI-H1944; first compound 0.08 µM,0.346
same,relative viability,NCI-H1944; first compound 0.253 µM,0.34
same,relative viability,NCI-H1944; first compound 0.8 µM,0.33
same,relative viability,NCI-H1944; first compound 8 µM,0.342
same,relative viability,NCI-H1993; first compound 0.08 µM,0.727
same,relative viability,NCI-H1993; first compound 0.253 µM,0.938
same,relative viability,NCI-H1993; first compound 0.8 µM,0.842
same,relative viability,NCI-H1993; first compound 2.53 µM,0.801
same,relative viability,NCI-H1993; first compound 8 µM,0.914
same,relative viability,NCI-H2009; first compound 0.08 µM,0.789
same,relative viability,NCI-H2009; first compound 0.253 µM,0.96
same,relative viability,NCI-H2009; first compound 0.8 µM,0.789
same,relative viability,NCI-H2009; first compound 2.53 µM,0.428
same,relative viability,NCI-H2009; first compound 8 µM,0.6
same,relative viability,NCI-H2170; first compound 0.08 µM,0.355
same,relative viability,NCI-H2170; first compound 0.253 µM,0.299
same,relative viability,NCI-H2170; first compound 0.8 µM,0.318
same,relative viability,NCI-H2170; first compound 2.53 µM,0.274
same,relative viability,NCI-H2170; first compound 8 µM,0.272
same,relative viability,NCI-H2228; first compound 0.08 µM,0.429
same,relative viability,NCI-H2228; first compound 0.253 µM,0.689
same,relative viability,NCI-H2228; first compound 0.8 µM,0.221
same,relative viability,NCI-H2228; first compound 2.53 µM,0.202
same,relative viability,NCI-H2228; first compound 8 µM,0.324
same,relative viability,NCI-H3122; first compound 0.08 µM,0.635
same,relative viability,NCI-H3122; first compound 0.253 µM,0.753
same,relative viability,NCI-H3122; first compound 0.8 µM,0.545
same,relative viability,NCI-H3122; first compound 8 µM,0.555
same,relative viability,NCI-H596; first compound 0.08 µM,0.406
same,relative viability,NCI-H596; first compound 0.253 µM,0.39
same,relative viability,NCI-H596; first compound 0.8 µM,0.229
same,relative viability,NCI-H596; first compound 2.53 µM,0.39
same,relative viability,NCI-H596; first compound 8 µM,0.438
same,relative viability,NCI-H727; first compound 0.08 µM,0.436
same,relative viability,NCI-H727; first compound 0.253 µM,0.59
same,relative viability,NCI-H727; first compound 0.8 µM,0.339
same,relative viability,NCI-H727; first compound 2.53 µM,0.362
same,relative viability,NCI-H727; first compound 8 µM,0.577
same,relative viability,PC-3 [JPC-3]; first compound 0.08 µM,0.817
same,relative viability,PC-3 [JPC-3]; first compound 0.253 µM,0.637
same,relative viability,PC-3 [JPC-3]; first compound 0.8 µM,0.674
same,relative viability,PC-3 [JPC-3]; first compound 2.53 µM,0.822
same,relative viability,PC-3 [JPC-3]; first compound 8 µM,0.876
same,relative viability,SK-LU-1; first compound 0.08 µM,0.568
same,relative viability,SK-LU-1; first compound 0.253 µM,0.638
same,relative viability,SK-LU-1; first compound 0.8 µM,0.588
same,relative viability,SK-LU-1; first compound 2.53 µM,0.574
same,relative viability,SK-LU-1; first compound 8 µM,0.362
same,relative viability,SK-MES-1; first compound 0.08 µM,0.339
same,relative viability,SK-MES-1; first compound 0.253 µM,0.374
same,relative viability,SK-MES-1; first compound 0.8 µM,0.374
same,relative viability,SK-MES-1; first compound 2.53 µM,0.373
same,relative viability,SK-MES-1; first compound 8 µM,0.346
same,relative viability,SW 1573; first compound 0.08 µM,0.555
same,relative viability,SW 1573; first compound 0.253 µM,0.511
same,relative viability,SW 1573; first compound 0.8 µM,0.482
same,relative viability,SW 1573; first compound 2.53 µM,0.346
same,relative viability,SW 1573; first compound 8 µM,0.365
